Data reported in DBAASP.
Values after ≈ are worked out from the molar mass of the structure shown.

What was measured:
Test in all cases: ≥ marks a high value that may be exact or a test limit, other limits are often not marked, values filed in µg/mL are converted to µM
[1] = tested on: Candida albicans ATCC 10231
[2] = tested on: Escherichia coli ATCC 25922
[3] = tested on: Pseudomonas aeruginosa ATCC 9027
[4] = tested on: Staphylococcus aureus ATCC 29737
[5] = tested on: Staphylococcus epidermidis ATCC 12228
[6] = tested on: Candida albicans ATCC 90028
[7] = tested on: Staphylococcus aureus USA 100
[8] = tested on: Staphylococcus aureus USA 300
[9] = tested on: Bacillus subtilis ATCC 62037
[10] = tested on: Cryptococcus neoformans ATCC 34881
[11] = tested on: Escherichia coli ATCC 27325
[12] = tested on: Pseudomonas putida ATCC 17426
[13] = tested on: Saccharomyces cerevisiae ATCC 44774
[14] = tested on: Salmonella enterica subsp. enterica serovar Enteritidis ATCC 13076
[15] = tested on: Staphylococcus aureus ATCC 15752
[16] = tested on: Streptococcus mutans ATCC 25175
[17] = tested on: Escherichia coli BW25113
[18] = tested on: Bacillus cereus AS1.126
[19] = tested on: Enterococcus faecalis CGMCC 1.595
[20] = tested on: Enterococcus faecium CGMCC 1.2334
[21] = tested on: Escherichia coli AS1.349
[22] = tested on: Lactococcus lactis AS1.1690
[23] = tested on: Pseudomonas aeruginosa CGMCC 1.860
[24] = tested on: Staphylococcus aureus AS1.72
[25] = tested on: Cronobacter sakazakii DPC 6440
[26] = tested on: Listeria monocytogenes LO28

## CC[C@H](C)[C@H](N)C(=O)N[C@@H](CCCN=C(N)N)C(=O)N[C@H](C(=O)N[C@@H](CCCCN)C(=O)N[C@H](C(=O)N[C@@H](CCCN=C(N)N)C(=O)N[C@H](C(=O)N[C@@H](CCCCN)C(=O)N[C@H](C(=O)N[C@@H](CCCN=C(N)N)C(=O)N[C@H](C(=O)N[C@@H](CCCCN)C(N)=O)C(C)C)[C@@H](C)CC)C(C)C)[C@@H](C)CC)C(C)C [IRVKIRVKIRVK]
[1]
  MIC: 82.9 µM (≈ 125 µg/mL)
[2]
  MIC: 10.3 µM (≈ 15.6 µg/mL)
[3]
  MIC: 41.4 µM (≈ 62.5 µg/mL)
[4]
  MIC: 20.8 µM (≈ 31.3 µg/mL)
[5]
  MIC: 1.33 µM (≈ 2 µg/mL)

## CC(=O)N[C@@H](CCCCN)C(=O)N1CCC[C@H]1C(=O)N[C@H](C(N)=O)C(C)C [KPV]
[6]
  MIC: ≥ 100 µM
[3]
  MIC: > 100 µM
[7]
  MIC: ≥ 100 µM
[8]
  MIC: ≥ 100 µM

## CC(C)[C@H](NC(=O)[C@H](CCCCN)NC(=O)CNC(=O)CNC(=O)[C@H](CCC(N)=O)NC(=O)[C@H](CCCCN)NC(=O)CNC(=O)[C@H](CCCN=C(N)N)NC(=O)[C@@H](N)CCCCN)C(=O)N[C@@H](CCCN=C(N)N)C(=O)N[C@@H](C)C(=O)N[C@@H](CCCCN)C(=O)N[C@@H](C)C(=O)N[C@@H](CCCCN)C(=O)N[C@H](C(=O)N[C@@H](CCCN=C(N)N)C(=O)N[C@@H](CO)C(=O)N[C@@H](CO)C(=O)O)[C@@H](C)O [KRGKQGGKVRAKAKTRSS]
[9]
  MIC: 8.23 µM (≈ 16 µg/mL)
[1]
  MIC: 8.23 µM (≈ 16 µg/mL)
[10]
  MIC: 4.12 µM (≈ 8 µg/mL)
[11]
  MIC: 4.12 µM (≈ 8 µg/mL)
[12]
  MIC: 8.23 µM (≈ 16 µg/mL)
[13]
  MIC: 8.23 µM (≈ 16 µg/mL)
[14]
  MIC: 8.23 µM (≈ 16 µg/mL)
[15]
  MIC: 16.5 µM (≈ 32 µg/mL)
[16]
  MIC: 16.5 µM (≈ 32 µg/mL)

## CC(C)C[C@H](NC(=O)CNC(=O)[C@H](C)NC(=O)[C@@H](N)CCCN=C(N)N)C(=O)N[C@@H](CCC(N)=O)C(=O)N[C@@H](Cc1ccccc1)C(=O)N1CCC[C@H]1C(=O)N[C@H](C(=O)NCC(=O)N[C@@H](CCCCN)C(=O)N[C@@H](CC(C)C)C(=O)N[C@@H](CC(C)C)C(=O)N[C@@H](CCCCN)C(=O)N[C@@H](CCCCN)C(=O)N[C@@H](CC(C)C)C(=O)N[C@@H](CC(C)C)C(=O)N[C@@H](CCCCN)C(=O)N[C@@H](CCCN=C(N)N)C(=O)N[C@@H](CC(C)C)C(=O)N[C@@H](CCCCN)C(=O)N[C@@H](CCCN=C(N)N)C(=O)O)C(C)C [RAGLQFPVGKLLKKLLKRLKR]
[9]
  MIC: 0.812 µM (≈ 2 µg/mL)
[1]
  MIC: 0.812 µM (≈ 2 µg/mL)
[10]
  MIC: 0.812 µM (≈ 2 µg/mL)
[11]
  MIC: 0.812 µM (≈ 2 µg/mL)
[12]
  MIC: 0.812 µM (≈ 2 µg/mL)
[13]
  MIC: 0.812 µM (≈ 2 µg/mL)
[14]
  MIC: 0.406 µM (≈ 1 µg/mL)
[15]
  MIC: 0.812 µM (≈ 2 µg/mL)
[16]
  MIC: 0.812 µM (≈ 2 µg/mL)

## CC[C@H](C)[C@H](NC(=O)[C@@H]1CCCN1C(=O)[C@@H]1CCCN1C(=O)[C@H](CCCN=C(N)N)NC(=O)[C@H](Cc1ccccc1)NC(=O)[C@@H](N)CCCN=C(N)N)C(=O)N[C@@H](CCCN=C(N)N)C(=O)N[C@@H](CCCN=C(N)N)C(=O)N1CCC[C@H]1C(=O)N1CCC[C@H]1C(=O)N[C@H](C(=O)N[C@@H](CCCN=C(N)N)C(=O)N1CCC[C@H]1C(=O)N1CCC[C@H]1C(=O)N[C@@H](Cc1ccccc1)C(=O)N[C@@H](Cc1ccc(O)cc1)C(=O)N[C@@H](Cc1c[nH]c2ccccc12)C(=O)O)[C@@H](C)CC [RFRPPIRRPPIRPPFYW]
[17]
  MIC: 16 µM (≈ 36 µg/mL)

## C[C@H](NC(=O)[C@H](CCCN=C(N)N)NC(=O)[C@H](Cc1cnc[nH]1)NC(=O)[C@H](Cc1c[nH]c2ccccc12)NC(=O)[C@H](Cc1ccccc1)NC(=O)[C@H](CCCN=C(N)N)NC(=O)[C@@H](N)CCCN=C(N)N)C(=O)N[C@@H](Cc1cnc[nH]1)C(=O)O [RRFWHRAH]
[18]
  MIC: ≥ 100 µM
[19]
  MIC: ≥ 100 µM
[20]
  MIC: ≥ 100 µM
[21]
  MIC: ≥ 100 µM
[22]
  MIC: ≥ 100 µM
[23]
  MIC: ≥ 100 µM
[24]
  MIC: ≥ 100 µM

## CC(C)C[C@H](NC(=O)[C@H](CCCCN)NC(=O)[C@H](CCCN=C(N)N)NC(=O)[C@H](Cc1cnc[nH]1)NC(=O)[C@H](C)NC(=O)[C@H](CCCN=C(N)N)NC(=O)[C@H](Cc1cnc[nH]1)NC(=O)[C@H](Cc1c[nH]c2ccccc12)NC(=O)[C@H](Cc1ccccc1)NC(=O)[C@H](CCCN=C(N)N)NC(=O)[C@H](CCCN=C(N)N)NC(=O)[C@H](Cc1c[nH]c2ccccc12)NC(=O)[C@H](Cc1cnc[nH]1)NC(=O)[C@H](CCCN=C(N)N)NC(=O)[C@H](Cc1c[nH]c2ccccc12)NC(=O)[C@@H](NC(=O)[C@H](CCCCN)NC(=O)[C@@H](N)CO)C(C)C)C(=O)O [SKVWRHWRRFWHRAHRKL]
[18]
  MIC: 3.13 µM (≈ 7.96 µg/mL)
[19]
  MIC: 1.56 µM (≈ 3.97 µg/mL)
[20]
  MIC: 3.13 µM (≈ 7.96 µg/mL)
[21]
  MIC: 6.25 µM (≈ 15.9 µg/mL)
[22]
  MIC: 3.13 µM (≈ 7.96 µg/mL)
[23]
  MIC: 1.56 µM (≈ 3.97 µg/mL)
[24]
  MIC: 3.13 µM (≈ 7.96 µg/mL)

## CC(C)[C@H](N)C(=O)N[C@@H](Cc1c[nH]c2ccccc12)C(=O)N[C@@H](CCCN=C(N)N)C(=O)N[C@@H](Cc1cnc[nH]1)C(=O)N[C@@H](Cc1c[nH]c2ccccc12)C(=O)N[C@@H](CCCN=C(N)N)C(=O)N[C@@H](CCCN=C(N)N)C(=O)N[C@@H](Cc1ccccc1)C(=O)N[C@@H](Cc1c[nH]c2ccccc12)C(=O)N[C@@H](Cc1cnc[nH]1)C(=O)N[C@@H](CCCN=C(N)N)C(=O)O [VWRHWRRFWHR]
[18]
  MIC: 3.13 µM (≈ 5.39 µg/mL)
[19]
  MIC: 3.13 µM (≈ 5.39 µg/mL)
[20]
  MIC: 3.13 µM (≈ 5.39 µg/mL)
[21]
  MIC: 6.25 µM (≈ 10.8 µg/mL)
[22]
  MIC: 6.25 µM (≈ 10.8 µg/mL)
[23]
  MIC: 3.13 µM (≈ 5.39 µg/mL)
[24]
  MIC: 3.13 µM (≈ 5.39 µg/mL)

## CC[C@H](C)[C@H](NC(=O)[C@@H](N)Cc1c[nH]c2ccccc12)C(=O)N[C@@H](CCC(N)=O)C(=O)N1CCC[C@H]1C(=O)N[C@@H](C)C(=O)N[C@H](C(=O)N[C@@H](C)C(=O)N[C@H](C(=O)N[C@H](C(=O)N1CCC[C@H]1C(=O)N[C@@H](Cc1ccc(O)cc1)C(=O)N[C@H](C(=O)N[C@@H](C)C(=O)N[C@@H](Cc1ccc(O)cc1)C(=O)N[C@@H](CC(C)C)C(=O)O)C(C)C)[C@@H](C)CC)C(C)C)[C@@H](C)O [WIQPATAVIPYVAYL]
[25]
  MIC: ≥ 625 µM
[26]
  MIC: ≥ 156 µM

## CC[C@H](C)[C@H](NC(=O)[C@@H](N)Cc1c[nH]c2ccccc12)C(=O)N[C@@H](CCC(N)=O)C(=O)N1CCC[C@H]1C(=O)N[C@@H](CCCCN)C(=O)N[C@H](C(=O)N[C@@H](CCCCN)C(=O)N[C@H](C(=O)N[C@H](C(=O)N1CCC[C@H]1C(=O)N[C@@H](Cc1c[nH]c2ccccc12)C(=O)N[C@@H](Cc1c[nH]c2ccccc12)C(=O)N[C@@H](Cc1c[nH]c2ccccc12)C(=O)N[C@@H](Cc1c[nH]c2ccccc12)C(=O)N[C@@H](Cc1c[nH]c2ccccc12)C(=O)O)[C@@H](C)CC)C(C)C)[C@@H](C)O [WIQPKTKVIPWWWWW]
[25]
  MIC: ≥ 78.1 µM
[26]
  MIC: 4.88 µM (≈ 10.5 µg/mL)

## CC[C@H](C)[C@H](NC(=O)[C@@H](N)Cc1c[nH]c2ccccc12)C(=O)N[C@@H](CCC(N)=O)C(=O)N1CCC[C@H]1C(=O)N[C@@H](CCCCN)C(=O)N[C@H](C(=O)N[C@@H](CCCCN)C(=O)N[C@H](C(=O)N[C@H](C(=O)N1CCC[C@H]1C(=O)O)[C@@H](C)CC)C(C)C)[C@@H](C)O [WIQPKTKVIP]
[25]
  MIC: ≥ 625 µM
[26]
  MIC: ≥ 156 µM

## NC(=O)[C@H](Cc1c[nH]c2ccccc12)NC(=O)[C@H](Cc1c[nH]c2ccccc12)NC(=O)[C@H](Cc1c[nH]c2ccccc12)NC(=O)[C@@H](N)Cc1c[nH]c2ccccc12 [WWWW]
[7]
  MIC: ≥ 100 µM
